One substance from patent publication EP4218772A1, “LITHIUM SALT FOR USE IN TREATMENT OF PULMONARY HYPERTENSION” (Charité - Universitätsmedizin Berlin, priority 2022, dated 2023) can be followed below.

This test relates to C57BL/6-mice. How it is done:
Animal experiments: • General: 10-12 week old male C57BL/6-mice were kept at normoxia or in a hypoxia chamber at 10% O2 for five weeks and got either regular chow or chow containing 0.2% Li2CO3. • IFT88 knock-out in mice: IFT88-flox mice were bred with Cdh5-cre mice. 2 weeks prior to treatment, IFT88fl/fl, Cdh5-cre+ and Cdh-cre- mice were intraperitoneally injected with tamoxifen (75 mg/kg body weight) to induce knock-out. • Echocardiography: Mice were anesthetized with initially 3% isoflurane. The animals are fixed in dorsal position and their thoracal hair was removed with depilatory cream. Pulmonary artery flow, tricuspid valve movement and other echocardiographic parameters were assessed with the echo device Vevo3100. • RVSP measurement: After five weeks, the mice got an intraperitoneal injection of ketamin (200 mg/kg bodyweight (bw)) and xylazine (10 mg/kg bw). A 2F microtip millar catheter was advanced into the right ventricle via the jugularis vein to measure right ventricle systolic pressure (RVSP).

On to lithium carbonate [Li2CO3], for which, under “chow containing 0.2% Li2CO3, hypoxia 10% O2 for five weeks”, the “right ventricular systolic blood pressure” value was “reduced the increase”. Besides, the “development of a PH under chronic hypoxia” value (food with 0.2% Li2CO3, 10% O2 for 5 weeks, Fig. 1D) is “prevents the development of a PH”.
